Key:
Assay type in all cases: in vivo
corn (Zea mays) = assay: Test C postemergence, visual plant response rating
Outline: (§1)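 Seeds sown in a loam–sand blend got a directed preemergence soil spray; postemergence plants (2–10 cm, one- to two-leaf stage) were sprayed with compound in a non-phytotoxic solvent plus surfactant. Injury was scored visually against untreated controls after about 10 d in a greenhouse on a 0–100 scale (100 = complete control).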

[1] = system: ragweed (common ragweed, Ambrosia artemisiifolia); assay: Test C postemergence, visual plant response rating
Outline: as §1

[2] = system: Italian ryegrass (Lolium mutiflorum); assay: Test C postemergence, visual plant response rating
Outline: as §1

[3] = system: blackgrass (Alopecurus myosuroides); assay: Test C postemergence, visual plant response rating
Outline: as §1

[4] = system: foxtail, giant (giant foxtail, Setaria faberi); assay: Test C postemergence, visual plant response rating
Outline: as §1

[5] = system: barnyardgrass (Echinochloa crus-galli); assay: Test C postemergence, visual plant response rating
Outline: as §1

[6] = system: pigweed (Amaranthus retroflexus); assay: Test C postemergence, visual plant response rating
Outline: as §1

[7] = system: galium (catchweed bedstraw, Galium aparine); assay: Test C postemergence, visual plant response rating
Outline: as §1

kochia (Bassia scoparia) [8] = assay: Test C postemergence, visual plant response rating
Outline: as §1

[9] = system: wheat (Triticum aestivum); assay: Test C postemergence, visual plant response rating
Outline: as §1

[10] = system: ragweed (common ragweed, Ambrosia artemisiifolia); assay: Test C preemergence, visual plant response rating; settings: Test C, 0 is no effect, 100 is complete control
Outline: as §1

[11] = system: Italian ryegrass (Lolium mutiflorum); assay: Test C preemergence, visual plant response rating; settings: Test C, 0 is no effect, 100 is complete control
Outline: as §1

[12] = system: foxtail, giant (giant foxtail, Setaria faberi); assay: Test C preemergence, visual plant response rating; settings: Test C, 0 is no effect, 100 is complete control
Outline: as §1

[13] = system: barnyardgrass (Echinochloa crus-galli); assay: Test C preemergence, visual plant response rating; settings: Test C, 0 is no effect, 100 is complete control
Outline: as §1

[14] = system: pigweed (Amaranthus retroflexus); assay: Test C preemergence, visual plant response rating; settings: Test C, 0 is no effect, 100 is complete control
Outline: as §1

kochia (Bassia scoparia) [15] = assay: Test C preemergence, visual plant response rating; settings: Test C, 0 is no effect, 100 is complete control
Outline: as §1

[16] = system: sedge umbrella (small-flower umbrella sedge, Cyperus difformis); assay: Test D flooded paddy test, visual plant response rating; settings: 250 g ai/ha, scale 0 to 100 (0 no effect, 100 complete control), 13 to 15 d
Outline: (§2)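 Plants grown to the 2-leaf stage; pots flooded to 3 cm above soil and compound applied directly into paddy water, depth held throughout. Kept in greenhouse 13 to 15 d, then rated visually against untreated controls on a 0–100 scale (0 no effect, 100 complete control).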

rice (Oryza sativa) = assay: as above; settings: 250 g ai/ha, scale 0 to 100 (0 no effect, 100 complete control), 13 to 15 d
Outline: as §2

[17] = system: barnyardgrass (Echinochloa crus-galli); assay: as above; settings: 250 g ai/ha, scale 0 to 100 (0 no effect, 100 complete control), 13 to 15 d
Outline: as §2

[18] = system: duck salad (Heteranthera limosa); assay: as above; settings: 250 g ai/ha, scale 0 to 100 (0 no effect, 100 complete control), 13 to 15 d
Outline: as §2

[19] = Test C, postemergence, 125 g ai/ha

Row | SMILES | Corn plant response rating (0 to 100 scale) (corn (Zea mays); Postemergence, 31 g ai/ha) | Corn plant response rating (0 to 100 scale) (corn (Zea mays); [19]) | Ragweed plant response rating (0 to 100 scale) ([1]; Postemergence, 31 g ai/ha) | Ragweed plant response rating (0 to 100 scale) [1, 19] | Ryegrass, Italian plant response rating (0 to 100 scale) ([2]; Postemergence, 31 g ai/ha) | Ryegrass, Italian plant response rating (0 to 100 scale) [2, 19] | Blackgrass plant response rating (0 to 100 scale) ([3]; Postemergence, 31 g ai/ha) | Blackgrass plant response rating (0 to 100 scale) [3, 19] | Foxtail, Giant plant response rating (0 to 100 scale) ([4]; Postemergence, 31 g ai/ha) | Foxtail, Giant plant response rating (0 to 100 scale) [4, 19] | Barnyardgrass plant response rating (0 to 100 scale) ([5]; Postemergence, 31 g ai/ha) | Barnyardgrass plant response rating (0 to 100 scale) [5, 19] | Pigweed plant response rating (0 to 100 scale) ([6]; Postemergence, 31 g ai/ha) | Pigweed plant response rating (0 to 100 scale) [6, 19] | Galium plant response rating (0 to 100 scale) ([7]; Postemergence, 31 g ai/ha) | Galium plant response rating (0 to 100 scale) [7, 19] | Kochia plant response rating (0 to 100 scale) (kochia (Bassia scoparia) [8]; Postemergence, 31 g ai/ha) | Kochia plant response rating (0 to 100 scale) (kochia (Bassia scoparia) [8]; [19]) | Wheat plant response rating (0 to 100 scale) ([9]; Postemergence, 31 g ai/ha) | Wheat plant response rating (0 to 100 scale) [9, 19] | other results
1 | CO/N=C(\c1c(O)c(C)nn(C)c1=O)c1cccc2cc(Cl)ccc12 [Compound 300] | 10 | 30 | 30 | 90 | 10 | 40 | 30 | 80 | 60 | 80 | 30 | 70 | 80 | 80 | 90 | 100 | 40 | 50 | 0 | 0 | Ragweed plant response rating (0 to 100 scale) ([10]; 31 g ai/ha): 0; Ragweed plant response rating (0 to 100 scale) ([10]; 125 g ai/ha): 20; Ryegrass, Italian plant response rating (0 to 100 scale) ([11]; 31 g ai/ha): 10; Ryegrass, Italian plant response rating (0 to 100 scale) ([11]; 125 g ai/ha): 70; Foxtail, Giant plant response rating (0 to 100 scale) ([12]; 31 g ai/ha): 40; Foxtail, Giant plant response rating (0 to 100 scale) ([12]; 125 g ai/ha): 80; Barnyardgrass plant response rating (0 to 100 scale) ([13]; 31 g ai/ha): 40; Barnyardgrass plant response rating (0 to 100 scale) ([13]; 125 g ai/ha): 60; Pigweed plant response rating (0 to 100 scale) ([14]; 31 g ai/ha): 30; Pigweed plant response rating (0 to 100 scale) ([14]; 125 g ai/ha): 90; Kochia plant response rating (0 to 100 scale) (kochia (Bassia scoparia) [15]; 31 g ai/ha): 0; Kochia plant response rating (0 to 100 scale) (kochia (Bassia scoparia) [15]; 125 g ai/ha): 30; Plant response rating, Sedge, Umbrella (Flood) [16]: 45; Plant response rating, Rice (Flood) (rice (Oryza sativa)): 20; Plant response rating, Barnyardgrass (Flood) [17]: 15; Plant response rating, Ducksalad (Flood) [18]: 55
2 | CO/N=C(/c1c(O)c(C)nn(C)c1=O)c1cccc2cc(Cl)ccc12 [Compound 301] | 0 | 20 | 10 | 30 | 0 | 10 | 0 | 60 | 40 | 70 | 20 | 40 | 50 | 70 | 70 | 90 | 0 | 30 | 0 | 0 | Ragweed plant response rating (0 to 100 scale) ([10]; 31 g ai/ha): 0; Ragweed plant response rating (0 to 100 scale) ([10]; 125 g ai/ha): 0; Ryegrass, Italian plant response rating (0 to 100 scale) ([11]; 31 g ai/ha): 0; Ryegrass, Italian plant response rating (0 to 100 scale) ([11]; 125 g ai/ha): 30; Foxtail, Giant plant response rating (0 to 100 scale) ([12]; 31 g ai/ha): 20; Foxtail, Giant plant response rating (0 to 100 scale) ([12]; 125 g ai/ha): 80; Barnyardgrass plant response rating (0 to 100 scale) ([13]; 31 g ai/ha): 0; Barnyardgrass plant response rating (0 to 100 scale) ([13]; 125 g ai/ha): 40; Pigweed plant response rating (0 to 100 scale) ([14]; 31 g ai/ha): 0; Pigweed plant response rating (0 to 100 scale) ([14]; 125 g ai/ha): 20; Kochia plant response rating (0 to 100 scale) (kochia (Bassia scoparia) [15]; 31 g ai/ha): 0; Kochia plant response rating (0 to 100 scale) (kochia (Bassia scoparia) [15]; 125 g ai/ha): 0; Plant response rating, Sedge, Umbrella (Flood) [16]: 0; Plant response rating, Rice (Flood) (rice (Oryza sativa)): 0; Plant response rating, Barnyardgrass (Flood) [17]: 0; Plant response rating, Ducksalad (Flood) [18]: 0
3 | CC(C)O/N=C(/c1c(O)cnn(C)c1=O)c1ccc(F)c2ccccc12 [Compound 302] | 0 | 0 | 0 | 20 | 0 | 30 | 0 | 0 | 10 | 30 | 0 | 0 | 30 | 60 | 20 | 60 | 0 | 20 | 0 | 0 | Ragweed plant response rating (0 to 100 scale) ([10]; 31 g ai/ha): 0; Ragweed plant response rating (0 to 100 scale) ([10]; 125 g ai/ha): 20; Ryegrass, Italian plant response rating (0 to 100 scale) ([11]; 31 g ai/ha): 0; Ryegrass, Italian plant response rating (0 to 100 scale) ([11]; 125 g ai/ha): 0; Foxtail, Giant plant response rating (0 to 100 scale) ([12]; 31 g ai/ha): 0; Foxtail, Giant plant response rating (0 to 100 scale) ([12]; 125 g ai/ha): 10; Barnyardgrass plant response rating (0 to 100 scale) ([13]; 31 g ai/ha): 0; Barnyardgrass plant response rating (0 to 100 scale) ([13]; 125 g ai/ha): 0; Pigweed plant response rating (0 to 100 scale) ([14]; 31 g ai/ha): 10; Pigweed plant response rating (0 to 100 scale) ([14]; 125 g ai/ha): 40; Kochia plant response rating (0 to 100 scale) (kochia (Bassia scoparia) [15]; 31 g ai/ha): 0; Kochia plant response rating (0 to 100 scale) (kochia (Bassia scoparia) [15]; 125 g ai/ha): 0; Plant response rating, Sedge, Umbrella (Flood) [16]: 0; Plant response rating, Rice (Flood) (rice (Oryza sativa)): 0; Plant response rating, Barnyardgrass (Flood) [17]: 0; Plant response rating, Ducksalad (Flood) [18]: 0
4 | CO/N=C(\c1c(O)cnn(C)c1=O)c1ccc(F)c2ccccc12 [Compound 303] | 0 | 0 | 10 | 20 | 20 | 40 | 0 | 0 | 0 | 20 | 0 | 10 | 40 | 60 | 30 | 70 | 40 | 50 | 0 | 0 | Ragweed plant response rating (0 to 100 scale) ([10]; 31 g ai/ha): 0; Ragweed plant response rating (0 to 100 scale) ([10]; 125 g ai/ha): 20; Ryegrass, Italian plant response rating (0 to 100 scale) ([11]; 31 g ai/ha): 0; Ryegrass, Italian plant response rating (0 to 100 scale) ([11]; 125 g ai/ha): 20; Foxtail, Giant plant response rating (0 to 100 scale) ([12]; 31 g ai/ha): 0; Foxtail, Giant plant response rating (0 to 100 scale) ([12]; 125 g ai/ha): 10; Barnyardgrass plant response rating (0 to 100 scale) ([13]; 31 g ai/ha): 0; Barnyardgrass plant response rating (0 to 100 scale) ([13]; 125 g ai/ha): 0; Pigweed plant response rating (0 to 100 scale) ([14]; 31 g ai/ha): 10; Pigweed plant response rating (0 to 100 scale) ([14]; 125 g ai/ha): 30; Kochia plant response rating (0 to 100 scale) (kochia (Bassia scoparia) [15]; 31 g ai/ha): 0; Kochia plant response rating (0 to 100 scale) (kochia (Bassia scoparia) [15]; 125 g ai/ha): 10; Plant response rating, Sedge, Umbrella (Flood) [16]: 0; Plant response rating, Rice (Flood) (rice (Oryza sativa)): 0; Plant response rating, Barnyardgrass (Flood) [17]: 0; Plant response rating, Ducksalad (Flood) [18]: 0

Source: patent US20210045385A1, “PYRIDAZINONE-SUBSTITUTED KETOXIMES AS HERBICIDES” (FMC Corporation, priority 2018, published 2021)
